The compounds below were run on test plant species (assay: Post-emergent herbicidal activity test (greenhouse, foliar spray, visual growth reduction)). Details: post-emergence, 336 h, ALOMY: blackgrass (Alopecurus myosuroides), 140 g ai/ha, 14 days after application, read-out: Visual Growth Reduction (%) 14 Days After Application, ALOMY.
Assay type: in vivo
In short: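 Plants grown in greenhouse (15 h photoperiod, 23-29° C day/22-28° C night) to first or second true leaf stage were sprayed overhead with compound in acetone/water/isopropanol/DMSO/crop oil/X-77 carrier at 187 L/ha. Injury was scored visually after 14 d on a 0-100% scale versus solvent-blank and untreated controls.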
`COC(=O)c1nc(-c2ccc(Cl)cc2Cl)ccc1C` [F52, Methyl 6-(2,4-dichlorophenyl)-3-methylpicolinate] was tested, and the pest or weed control at 140 g/ha was 0 to 29%. `COC(=O)c1nc(-c2ccc(C#N)cc2Cl)c(F)cc1Cl` [F186, Methyl 3-chloro-6-(2-chloro-4-cyanophenyl)-5-fluoropicolinate] showed a pest or weed control at 140 g/ha of 0 to 29%.

Same assay, conditions: post-emergence, 336 h, AMARE: redroot pigweed (Amaranthus retroflexus), 140 g ai/ha, 14 days after application, read-out: Visual Growth Reduction (%) 14 Days After Application, AMARE
`COC(=O)c1nc(-c2ccc(Cl)cc2Cl)ccc1C` [F52, Methyl 6-(2,4-dichlorophenyl)-3-methylpicolinate] gave a pest or weed control at 140 g/ha of 0 to 29%. `COC(=O)c1nc(-c2ccc(C#N)cc2Cl)c(F)cc1Cl` [F186, Methyl 3-chloro-6-(2-chloro-4-cyanophenyl)-5-fluoropicolinate] showed a pest or weed control at 140 g/ha of 75 to 84%.

Same assay, conditions: post-emergence, 336 h, AVEFA: wild oat (Avena fatua), 140 g ai/ha, 14 days after application, read-out: Visual Growth Reduction (%) 14 Days After Application, AVEFA
With `COC(=O)c1nc(-c2ccc(Cl)cc2Cl)ccc1C` [F52, Methyl 6-(2,4-dichlorophenyl)-3-methylpicolinate] the pest or weed control at 140 g/ha was 0 to 29%. With `COC(=O)c1nc(-c2ccc(C#N)cc2Cl)c(F)cc1Cl` [F186, Methyl 3-chloro-6-(2-chloro-4-cyanophenyl)-5-fluoropicolinate] the pest or weed control at 140 g/ha was 0 to 29%.

Same assay, conditions: post-emergence, 336 h, CHEAL: lambsquarters (Chenopodium album), 140 g ai/ha, 14 days after application, read-out: Visual Growth Reduction (%) 14 Days After Application, CHEAL
`COC(=O)c1nc(-c2ccc(Cl)cc2Cl)ccc1C` [F52, Methyl 6-(2,4-dichlorophenyl)-3-methylpicolinate] showed a pest or weed control at 140 g/ha of 0 to 29%. Compound `COC(=O)c1nc(-c2ccc(C#N)cc2Cl)c(F)cc1Cl` [F186, Methyl 3-chloro-6-(2-chloro-4-cyanophenyl)-5-fluoropicolinate] has a pest or weed control at 140 g/ha of 85 to 94%.

Same assay, conditions: post-emergence, 336 h, CIRAR: canada thistle (Cirsium arvense), 140 g ai/ha, 14 days after application, read-out: Visual Growth Reduction (%) 14 Days After Application, CIRAR
Compound `COC(=O)c1nc(-c2ccc(Cl)cc2Cl)ccc1C` [F52, Methyl 6-(2,4-dichlorophenyl)-3-methylpicolinate] has a pest or weed control at 140 g/ha of 0 to 29%. Compound `COC(=O)c1nc(-c2ccc(C#N)cc2Cl)c(F)cc1Cl` [F186, Methyl 3-chloro-6-(2-chloro-4-cyanophenyl)-5-fluoropicolinate] has a pest or weed control at 140 g/ha of 75 to 84%.

Same assay, conditions: post-emergence, 336 h, CYPES: yellow nutsedge (Cyperus esculentus), 140 g ai/ha, 14 days after application, read-out: Visual Growth Reduction (%) 14 Days After Application, CYPES
`COC(=O)c1nc(-c2ccc(Cl)cc2Cl)ccc1C` [F52, Methyl 6-(2,4-dichlorophenyl)-3-methylpicolinate] was tested, and the pest or weed control at 140 g/ha was 0 to 29%. `COC(=O)c1nc(-c2ccc(C#N)cc2Cl)c(F)cc1Cl` [F186, Methyl 3-chloro-6-(2-chloro-4-cyanophenyl)-5-fluoropicolinate] gave a pest or weed control at 140 g/ha of 45 to 59%.

Same assay, conditions: post-emergence, 336 h, DIGSA: crabgrass (Digitaria sanguinalis), 140 g ai/ha, 14 days after application, read-out: Visual Growth Reduction (%) 14 Days After Application, DIGSA
In the case of `COC(=O)c1nc(-c2ccc(Cl)cc2Cl)ccc1C` [F52, Methyl 6-(2,4-dichlorophenyl)-3-methylpicolinate], the pest or weed control at 140 g/ha is reported as 0 to 29%. `COC(=O)c1nc(-c2ccc(C#N)cc2Cl)c(F)cc1Cl` [F186, Methyl 3-chloro-6-(2-chloro-4-cyanophenyl)-5-fluoropicolinate] was tested, and the pest or weed control at 140 g/ha was 75 to 84%.

Same assay, conditions: post-emergence, 336 h, ECHCG: barnyardgrass (Echinochloa crus-galli), 140 g ai/ha, 14 days after application, read-out: Visual Growth Reduction (%) 14 Days After Application, ECHCG
Compound `COC(=O)c1nc(-c2ccc(Cl)cc2Cl)ccc1C` [F52, Methyl 6-(2,4-dichlorophenyl)-3-methylpicolinate] has a pest or weed control at 140 g/ha of 0 to 29%. `COC(=O)c1nc(-c2ccc(C#N)cc2Cl)c(F)cc1Cl` [F186, Methyl 3-chloro-6-(2-chloro-4-cyanophenyl)-5-fluoropicolinate] showed a pest or weed control at 140 g/ha of 60 to 74%.

Same assay, conditions: post-emergence, 336 h, IPOHE: ivy-leaf morning glory (Ipomoea hederacea), 140 g ai/ha, 14 days after application, read-out: Visual Growth Reduction (%) 14 Days After Application, IPOHE
In the case of `COC(=O)c1nc(-c2ccc(C#N)cc2Cl)c(F)cc1Cl` [F186, Methyl 3-chloro-6-(2-chloro-4-cyanophenyl)-5-fluoropicolinate], the pest or weed control at 140 g/ha is reported as 95 to 100%.

Same assay, conditions: post-emergence, 336 h, KCHSC: kochia (Bassia scoparia), 140 g ai/ha, 14 days after application, read-out: Visual Growth Reduction (%) 14 Days After Application, KCHSC
Compound `COC(=O)c1nc(-c2ccc(Cl)cc2Cl)ccc1C` [F52, Methyl 6-(2,4-dichlorophenyl)-3-methylpicolinate] has a pest or weed control at 140 g/ha of 0 to 29%. For `COC(=O)c1nc(-c2ccc(C#N)cc2Cl)c(F)cc1Cl` [F186, Methyl 3-chloro-6-(2-chloro-4-cyanophenyl)-5-fluoropicolinate], the pest or weed control at 140 g/ha was 75 to 84%.

Same assay, conditions: post-emergence, 336 h, ORYSA: rice (Oryza sativa), 140 g ai/ha, 14 days after application, read-out: Visual Growth Reduction (%) 14 Days After Application, ORYSA
With `COC(=O)c1nc(-c2ccc(Cl)cc2Cl)ccc1C` [F52, Methyl 6-(2,4-dichlorophenyl)-3-methylpicolinate] the pest or weed control at 140 g/ha was 0 to 29%. `COC(=O)c1nc(-c2ccc(C#N)cc2Cl)c(F)cc1Cl` [F186, Methyl 3-chloro-6-(2-chloro-4-cyanophenyl)-5-fluoropicolinate] showed a pest or weed control at 140 g/ha of 0 to 29%.

Same assay, conditions: post-emergence, 336 h, SETFA: giant foxtail (Setaria faberi), 140 g ai/ha, 14 days after application, read-out: Visual Growth Reduction (%) 14 Days After Application, SETFA
With `COC(=O)c1nc(-c2ccc(Cl)cc2Cl)ccc1C` [F52, Methyl 6-(2,4-dichlorophenyl)-3-methylpicolinate] the pest or weed control at 140 g/ha was 0 to 29%. Compound `COC(=O)c1nc(-c2ccc(C#N)cc2Cl)c(F)cc1Cl` [F186, Methyl 3-chloro-6-(2-chloro-4-cyanophenyl)-5-fluoropicolinate] has a pest or weed control at 140 g/ha of 85 to 94%.

Same assay, conditions: post-emergence, 336 h, SORVU: grain sorghum (Sorghum vulgare), 140 g ai/ha, 14 days after application, read-out: Visual Growth Reduction (%) 14 Days After Application, SORVU
`COC(=O)c1nc(-c2ccc(Cl)cc2Cl)ccc1C` [F52, Methyl 6-(2,4-dichlorophenyl)-3-methylpicolinate] gave a pest or weed control at 140 g/ha of 0 to 29%. `COC(=O)c1nc(-c2ccc(C#N)cc2Cl)c(F)cc1Cl` [F186, Methyl 3-chloro-6-(2-chloro-4-cyanophenyl)-5-fluoropicolinate] was tested, and the pest or weed control at 140 g/ha was 85 to 94%.

Same assay, conditions: post-emergence, 336 h, STEME: common chickweed (Stellaria media), 140 g ai/ha, 14 days after application, read-out: Visual Growth Reduction (%) 14 Days After Application, STEME
`COC(=O)c1nc(-c2ccc(Cl)cc2Cl)ccc1C` [F52, Methyl 6-(2,4-dichlorophenyl)-3-methylpicolinate] showed a pest or weed control at 140 g/ha of 0 to 29%. With `COC(=O)c1nc(-c2ccc(C#N)cc2Cl)c(F)cc1Cl` [F186, Methyl 3-chloro-6-(2-chloro-4-cyanophenyl)-5-fluoropicolinate] the pest or weed control at 140 g/ha was 0 to 29%.

Same assay, conditions: post-emergence, 336 h, TRZAS: wheat, spring (Triticum aestivum), 140 g ai/ha, 14 days after application, read-out: Visual Growth Reduction (%) 14 Days After Application, TRZAS
`COC(=O)c1nc(-c2ccc(Cl)cc2Cl)ccc1C` [F52, Methyl 6-(2,4-dichlorophenyl)-3-methylpicolinate] gave a pest or weed control at 140 g/ha of 0 to 29%. Work on `COC(=O)c1nc(-c2ccc(C#N)cc2Cl)c(F)cc1Cl` [F186, Methyl 3-chloro-6-(2-chloro-4-cyanophenyl)-5-fluoropicolinate] yielded a pest or weed control at 140 g/ha of 30 to 44%.

From US20230017045A1, “PYRIDINE AND PYRIMIDINE CARBOXYLATE HERBICIDES AND METHODS OF USE THEREOF” (Dow AgroSciences LLC, priority 2017, published 2023)
